Results published in ChEMBL document CHEMBL4028880, “Structure-Activity Relationships of New Natural Product-Based Diaryloxazoles with Selective Activity against Androgen Receptor-Positive Breast Cancer Cells” (J Med Chem, 2017).

Experiment: Aqueous solubility of the compound
Format: physicochemical
Settings: buffer

Q: With `CC(C)=CCOc1ccc(-c2cnc(-c3ccccc3)o2)cc1` as the compound, how does the solubility read?
A: Insoluble
